How the values were obtained:
[1] = system: JTNT1 tobacco cell suspension cultures; assay: Single cell production, growth and viability of JTNT1 suspension with microtubule inhibitors in 24-well plates, glycerol medium; settings: for cell growth and appearance: all concentrations tested (1, 3, 10 μM)
Source text: JTNT1 Tobacco Suspension Cultures. […] Furthermore, Suc stabilizes preformed microtubules, making an examination of the effects of MTIs on preformed microtubules unfeasible. In addition, sucrose increases solution viscosity substantially, and tubulin polymerization is altered at least in part by slowed dimer and polymer diffusion rates. Thus, it was important to have low or no sucrose in medium where the single cell production. Thus, a new JTNT1 line habituated in Glycerol was developed for this study.
Each of the 24 well contained 1 ml of JTNT1 suspension. The 24-well plates were kept on an Innova 4900 Multi Environmental Shaker with special clamps and harnesses to allow stacking of plates up to 6 plates high. The plates were rotated at a speed of 130 rpm and 25° C. in dark.
Single Cell Production. Each compound was dissolved in dimethyl sulfoxide (DMSO) to provide 0.5 Molar stock solutions. One ml of JTNT1 suspension (1 ml PCV/20 ml tobacco media) was added to each well of the 24 well plates. To each well an individual chemical was added to achieve the desired concentrations (at 1 μM, 3 μM, and 10 μM). The cultures were allowed to grow for 7 days on the Innova Shaker. Each day turbidity measurements was taken on each well using a SpectraMax M2^e by Molecular devices (set at 600 absorbance, with 5 readings taken per well). On day 7, cells were observed using the Leica 5000 inverted confocal microscope for formation of single cells and cell viability.

JTNT1 single cells = assay: Cytological characterization of JTNT1 single cells (nucleus, cell wall); type: cell-based, tobacco
Procedure: JTNT1 Tobacco single cell initiation and sample collection. JTNT1 Tobacco single cells were initiated in two different media, NT1B with 3% sucrose (NT1B-Suc) and NT1B with 3% glycerol (NT1B-Gly) in 3.5 day culture cycle. […] The flasks were closed with a foam stopper and cultured on a orbital shaker at 130 rpm in dark at 25-28° C. The cultures were sub cultured every 3.5 days up to a period of 14 days. Four samples (Suc/Gly grown cells and the control cultures in Suc/Gly media with 0.2% DMSO) of the cultures were harvested every 3.5 days by spinning the suspension at 3000 rpm for 5 minutes. The samples were immediately lyophilized to prevent any cell oxidation to minimize any deleterious effect on the samples introduced post harvest. Single cells were stained with Hoechst nuclear stain for an hour and observed under scopes for any nuclear anomaly up to two culture cycles.
Cell viability and Cell wall. Established JTNT1 single cells were used to stain with FUN1 (F-7030, Molecular Probes, Invitrogen Inc) cell stain which is used for viability test in yeast, and this contains two color fluorescent probes. The third one, Calcofluor White M2R which stains cell wall, was used to stain the cells. For JTNT1 single cells, […] of FUN1 stain is added and the culture was incubated at room temperature for 20 mins 1 mL fresh culture media was added to wash the excess stain and centrifuged at 3000 rpm; the supernantant was discarded. The cells were examined and imaged on Zeiss ApoTome microscope.
Nucleus. Single cells were stained with Hoechst nuclear stain for an hour and observed on Zeiss Apo Tome for any nuclear anomaly up to two culture cycles. Crystal violet stain was also used as a live nuclear stain for observing nuclear structure for ploidy characterization

plant tubulin = settings: 1 M Sucrose; cited from earlier work
JTNT1 cells = assay: Plasma membrane staining of single cells with FM4-64; type: cell-based, tobacco; settings: 100 nM
Procedure: Plasmamembrane. JTNT1 cells were incubated with 5 μm FM4-64 (styryl dye) for 5 minutes and washed with fresh media. The culture was centrifuged at 3000 rpm, and fresh media was added. The cells were visualized on Zeiss ApoTome microscope.

COc1ccc([C@H]2CC=CC[C@@H]2[N+](=O)[O-])c(OC)c1OC (racemic) [trimethoxyphenylcyclohexene, (±)-4S,5R-4-nitro-5-(2,3,4-trimethoxyphenyl)-cyclohexene]
bleaching of cells [1]: mild bleaching | single cell formation ([1]; 1 μM, 3 μM, and 10 μM): promoted the formation of single cells | cell viability ([1]; across all levels (1 μM, 3 μM, 10 μM)): 80-90% | cell growth and appearance [1]: grew very well | nuclear organization of single cells (JTNT1 single cells; 1 uM, 3.5 d cultures): single nucleus | nuclear ploidy (JTNT1 single cells; 14 days of continuous treatments): low or no nuclear ploidy percentage

COP(=S)(NC(C)C)Oc1ccc(C)cc1[N+](=O)[O-] (stereo not drawn) [APM, Amiprophosmethyl]
concentration at which single cells were formed [1]: 1 to 10 µM | cell growth ([1]; 1 μM and 3 μM): grew well | effect at higher concentration ([1]; above 1-10 μM): remarkable reduction of growth and cell division inhibition | cell viability (Fluorescein diacetate and Propidium Iodine stains) ([1]; tobacco, 7 days): up to 70% | effect on plant microtubule length (plant tubulin): concentration-dependent decrease in plant microtubule length

CSC(=O)c1c(C(F)F)nc(C(F)(F)F)c(C(=O)SC)c1CC(C)C [Dithiopyr]
single cell formation ([1]; 1 μM and 3 μM): single cells were formed | single cell formation ([1]; 10 μM): the concentration of the cells was low | cell growth and appearance [1]: healthy, growing and yellow in color

CCC(C)(CC)c1cc(NC(=O)c2c(OC)cccc2OC)on1 [Isoxeben]
FM4-64 staining of single cells (JTNT1 cells): extensive vesicle on the surface
